Among the data in PubChem BioAssay (NCI) are TGI values, retold here.

Test systems include A498 renal; CCRF-CEM leukemia; HL-60(TB) leukemia; MDA-MB-231 breast; MDA-MB-435; OVCAR-3 ovarian; OVCAR-4 ovarian; OVCAR-8 ovarian; SNB-19 CNS; UACC-62 melanoma.
What all share (experiment): NCI-60 cell line screen, 48 h

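Tested at 5 concentrations; 48 h exposure; 96-well plates; endpoints linearly interpolated, else capped at highest concentration. Definition used: TGI = concentration required for complete inhibition of growth.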 Where only a bound is given, the exact number is not on record here.

`Cc1cnc2cc(Cl)ccc2c1SCC(=O)O`: the TGI in the test on A498 renal, in the test with CCRF-CEM leukemia, with HL-60(TB) leukemia, in the test with MDA-MB-231 breast, with MDA-MB-435 and in the test on OVCAR-3 ovarian was above 100 µM in each case. For the same molecule, the TGI with OVCAR-4 ovarian, in the test with OVCAR-8 ovarian, in the test on SNB-19 CNS and with UACC-62 melanoma was above 100 µM each time.
On to `O=C1CSC2=NC3=C(COC/C3=C\c3ccc(F)cc3)C(c3ccc(F)cc3)N12` (stereo not given), for which the TGI in the test on A498 renal was above 100 µM; in the test on CCRF-CEM leukemia it was 74.5 µM; in the test on HL-60(TB) leukemia, 34.5 µM; with MDA-MB-231 breast it was above 100 µM; in the test on MDA-MB-435, above 100 µM; with OVCAR-3 ovarian, above 100 µM. Moreover, the TGI in the test with OVCAR-4 ovarian, in the test on OVCAR-8 ovarian, in the test with SNB-19 CNS and in the test with UACC-62 melanoma was above 100 µM each time.
`COc1ccc2c(-c3csc(-c4c[nH]c5ccccc45)n3)c[nH]c2c1`: the TGI is 21.6 µM with A498 renal; above 63.3 µM in the test with CCRF-CEM leukemia; above 100 µM with HL-60(TB) leukemia; above 37.6 µM with MDA-MB-231 breast; above 100 µM in the test on MDA-MB-435; 51.7 µM in the test on OVCAR-3 ovarian. In addition, the TGI in the test with OVCAR-4 ovarian was 69.8 µM; with OVCAR-8 ovarian it was above 60.6 µM; in the test with SNB-19 CNS, above 100 µM; with UACC-62 melanoma, above 94.8 µM.
In the case of `CC(=O)N1C(=O)/C(=C\C(=O)c2ccc(Cl)cc2)c2ccccc21`, the TGI in the test with A498 renal was determined as 69.3 µM; in the test with CCRF-CEM leukemia it was 7.58 µM; in the test on HL-60(TB) leukemia it was 5.24 µM; in the test with MDA-MB-231 breast, 30.3 µM; with MDA-MB-435, 36.5 µM; in the test on OVCAR-3 ovarian, 30.6 µM. The TGI with OVCAR-4 ovarian was 35.9 µM; in the test with OVCAR-8 ovarian it was 33.7 µM; with SNB-19 CNS, above 57.2 µM; in the test with UACC-62 melanoma, 28.6 µM.
For `CC1=CCC(=O)[C@]2(C)C(CC(=O)O)[C@]3(C)C4=C(C)C(c5ccoc5)C[C@@H]4O[C@@H]3[C@H](O)[C@@H]12` (stereo not given in full), the TGI in the test on A498 renal, in the test on CCRF-CEM leukemia, in the test on HL-60(TB) leukemia, in the test on MDA-MB-231 breast, in the test with MDA-MB-435 and in the test on OVCAR-3 ovarian was above 100 µM throughout. For the same molecule, the TGI with OVCAR-4 ovarian, in the test on OVCAR-8 ovarian, in the test on SNB-19 CNS and in the test on UACC-62 melanoma was above 100 µM each time.
For the molecule `O=C1CSC(c2cc3cc(Br)ccc3nc2Cl)N1c1ccc(F)c(Cl)c1` (stereo not given), the TGI in the test with A498 renal, in the test on CCRF-CEM leukemia, in the test with HL-60(TB) leukemia, in the test on MDA-MB-231 breast, with MDA-MB-435 and in the test on OVCAR-3 ovarian was above 50 µM each time. For the same molecule, the TGI in the test with OVCAR-4 ovarian, with OVCAR-8 ovarian, in the test on SNB-19 CNS and with UACC-62 melanoma was above 50 µM in each case.
For `NC(=O)c1ccc(S(=O)(=NS(=O)(=O)c2ccccc2)c2ccc(C(N)=O)cc2)cc1`, the TGI with A498 renal, in the test with CCRF-CEM leukemia, in the test on HL-60(TB) leukemia, with MDA-MB-231 breast, with MDA-MB-435 and with OVCAR-3 ovarian was above 100 µM in each case. Further, the TGI with OVCAR-4 ovarian, with OVCAR-8 ovarian, in the test with SNB-19 CNS and with UACC-62 melanoma was above 100 µM each time.
Regarding `NC(=O)c1nnc2c(F)cccc2c1N`, the TGI in the test with A498 renal, in the test on CCRF-CEM leukemia, with HL-60(TB) leukemia, in the test on MDA-MB-231 breast, with MDA-MB-435 and with OVCAR-3 ovarian was above 100 µM throughout. The TGI in the test with OVCAR-4 ovarian, with OVCAR-8 ovarian, in the test with SNB-19 CNS and in the test on UACC-62 melanoma was above 100 µM each time.
As for `C(=N\Nc1nnc(-c2nnc(N/N=C/c3ccccc3)o2)o1)/c1ccccc1`, the TGI with A498 renal, in the test with CCRF-CEM leukemia, in the test with HL-60(TB) leukemia, in the test on MDA-MB-231 breast, in the test on MDA-MB-435 and with OVCAR-3 ovarian was above 10 µM throughout. Also, the TGI in the test on OVCAR-4 ovarian, with OVCAR-8 ovarian, in the test with SNB-19 CNS and in the test with UACC-62 melanoma was above 10 µM each time.
On to `Oc1cccc(-c2cn3cc(Cl)ccc3n2)c1`, for which the TGI in the test on A498 renal is above 100 µM; in the test with CCRF-CEM leukemia, 81.5 µM; in the test with HL-60(TB) leukemia, 56.2 µM; with MDA-MB-231 breast, above 100 µM; in the test on MDA-MB-435, above 100 µM; in the test on OVCAR-3 ovarian, above 100 µM. Moreover, the TGI in the test on OVCAR-4 ovarian, with OVCAR-8 ovarian, with SNB-19 CNS and with UACC-62 melanoma was above 100 µM throughout.
As for `O=C1/C(=C/Cc2ccco2)N=C(c2ccccc2)N1c1nc2c(Cl)cc(Cl)cc2s1`, the TGI with A498 renal was 43.4 µM; with CCRF-CEM leukemia, 39.8 µM; in the test with HL-60(TB) leukemia, 49.9 µM; in the test with MDA-MB-231 breast, 82.2 µM; in the test on MDA-MB-435, 60.1 µM; in the test with OVCAR-3 ovarian it was 52.6 µM. Further, the TGI in the test with OVCAR-4 ovarian was 75.6 µM; in the test with OVCAR-8 ovarian, above 100 µM; with SNB-19 CNS it was above 100 µM; in the test on UACC-62 melanoma, above 100 µM.
Turning to `CC(C)(CO)Nc1c(O)c2c(c(O)c1Cl)C(=O)C=CC2=O`, the TGI worked out at 3.36 µM in the test with A498 renal; 1.26 µM in the test on CCRF-CEM leukemia; 0.561 µM with HL-60(TB) leukemia; 3.15 µM in the test with MDA-MB-231 breast; 2.38 µM with MDA-MB-435; 2.9 µM with OVCAR-3 ovarian. Further, the TGI turned out to be 2.92 µM in the test with OVCAR-4 ovarian, 2.71 µM in the test with OVCAR-8 ovarian, 3.5 µM in the test with SNB-19 CNS and 2.72 µM with UACC-62 melanoma.
For the molecule `c1ccc2c(c1)[C@@H]1O[C@@H]1[C@@]13O[C@@]21[C@H]1O[C@H]1c1ccccc13`, the TGI in the test on A498 renal turned out to be 30.7 µM; in the test on CCRF-CEM leukemia, 24.3 µM; in the test on HL-60(TB) leukemia, 41 µM; in the test on MDA-MB-231 breast, 33.6 µM; in the test on MDA-MB-435 it was 28.7 µM; in the test on OVCAR-3 ovarian it was 32.1 µM. Besides, the TGI turned out to be 26.8 µM in the test with OVCAR-4 ovarian, 39.6 µM with OVCAR-8 ovarian, 40.1 µM in the test on SNB-19 CNS and 28.1 µM with UACC-62 melanoma.
